Patent US9012611B2, “Use of 3,8,12,14, 17,20-oxo-substituted pregnene glycosides in the preparation of healthcare products, food additives and pharmaceuticals for the inhibition of appetite” (Institute of Materia Medica, Chinese Academy of Sciences, priority 2010, dated 2015)

How the values were obtained:
[1] = Animal test in vivo: average body weight; set-up: species or system rat; settings: for Average body weight: Table 6, positive control 15 mg/kg, wilfosides 50 mg/kg; for body weight compared with the blank control group (in words): during the administration of the drugs, crude extract 300 mg/kg, pure glycosides 50 mg/kg
Protocol: (§1) 6-7 weeks-old female Wistar rat (purchased from Shanghai Laboratory Animal Center of Chinese Academy of Sciences)(weight: 110-150 g) was raised alone in suspended metal cage. After the experimental rat was obtained, it was checked to make sure whether they were abnormal or had obvious disease signs. The rat can freely obtain the drinking-water and feed for rodent (RM1(E)AQC). The feeding cage was controlled to receive 12 h illumination (from 07:00 to 19:00) and to be in a dark environment for 12 h, and the room temperature and relative humidity were controlled to be 21±3° C. and 55±15% respectively and not to deviate the upper and lower limit. The rats were randomly divided into groups depending on the body weight according to random number table to make the average weight in each group are approximately equal. Before the test, the rats were pre-trained suitably for one week (from −7th day to −1st day) during which the consumptions of feed and drinking water were recorded.
(§2) Each group of drug to be tested, positive control group, and blank control group consisted of 5 rats, respectively. The tested drug and positive control drug were mixed with wheaten starch before the administration and formulated to suspension with required doses according to 10 mL/kg of administration volume. The positive control drug was sibutramine hydrochloride and the administration dosage was 15 mg/kg body weight. In the blank control group, only equal amount of starch was used to formulate suspension for administration by […] in a same volume. The administration time is the 1st day, 2nd day and 3rd day. The body weight of the rat, the consumption of the feed (the weight of the feeding hopper) and consumption of the drinking water (bottle weight) were recorded from the −7th day to the 7th day.

[2] = test system: female Wistar rat; assay: Animal test in vivo: average food consumption (appetite inhibition); settings: for Average food consumptions: Table 4, positive control 15 mg/kg, wilfosides 50 mg/kg; for average food consumptions compared with the blank control group (in words): during the administration of the drugs, crude extract 300 mg/kg, pure glycosides 50 mg/kg
Protocol: as §1, §2

[3] = 4th day (after administration on days 1-3)
[4] = 5th day (after administration on days 1-3)
[5] = 6th day (after administration on days 1-3)
[6] = 7th day (after administration on days 1-3)
[7] = −1st day (before administration)
[8] = −2nd day (before administration)
[9] = −3rd day (before administration)
[10] = −4th day (before administration)
[11] = −5th day (before administration)
[12] = −6th day (before administration)
[13] = −7th day (before administration)

| SMILES | Average body weight ([1]; 1st day (administration day)) [g] | Average body weight ([1]; 2nd day (administration day)) [g] | Average body weight ([1]; 3rd day (administration day)) [g] | Average body weight [1, 3] [g] | Average body weight [1, 4] [g] | Average body weight [1, 5] [g] | Average body weight [1, 6] [g] | body weight compared with the blank control group (in words) [1] | Average body weight [1, 7] [g] | Average body weight [1, 8] [g] | Average body weight [1, 9] [g] | Average body weight [1, 10] [g] | Average body weight [1, 11] [g] | Average body weight [1, 12] [g] | Average body weight [1, 13] [g] | Average food consumptions ([2]; 1st day (administration day)) [g] | Average food consumptions ([2]; 2nd day (administration day)) [g] | Average food consumptions ([2]; 3rd day (administration day)) [g] | Average food consumptions [2, 3] [g] | Average food consumptions [2, 4] [g] | further results |
| --- | --- | --- | --- | --- | --- | --- | --- | --- | --- | --- | --- | --- | --- | --- | --- | --- | --- | --- | --- | --- | --- |
| CO[C@H]1C[C@H](O[C@H]2[C@@H](OC)C[C@H](O[C@H]3CC[C@@]4(C)C(=CC[C@]5(O)[C@@H]4C[C@@H](OC(=O)/C=C(\C)C(C)C)[C@@]4(C)[C@]5(O)CC[C@@]4(O)C(C)=O)C3)O[C@@H]2C)O[C@@H](C)[C@H]1O[C@H]1C[C@H](OC)[C@H](O[C@H]2C[C@@H](OC)[C@@H](O)[C@H](C)O2)[C@@H](C)O1 [Wilfoside C1N, wilfoside C1N] | 152 | 146.8 | 141.6 | 149.2 | 154 | 155.2 | 157.2 | no great differences | 154 | 151.4 | 148.4 | 146.8 | 144.4 | 142 | 140.6 | 11.6 | 8.8 | 3.6 | 11.6 | 15.6 | Average food consumptions [2, 5]: 13.6 g; Average food consumptions [2, 6]: 15.6 g; average food consumptions compared with the blank control group (in words) [2]: greatly different from those in the blank group; Average food consumptions [2, 7]: 13.6 g; Average food consumptions [2, 8]: 14 g; Average food consumptions [2, 9]: 13.2 g; Average food consumptions [2, 10]: 13.2 g; Average food consumptions [2, 11]: 14.8 g; Average food consumptions [2, 12]: 10.8 g; Average food consumptions [2, 13]: 8.4 g |
| CO[C@H]1C[C@H](O[C@H]2[C@@H](OC)C[C@H](O[C@H]3CC[C@@]4(C)C(=CC[C@]5(O)[C@@H]4C[C@@H](OC(=O)/C=C/c4ccccc4)[C@@]4(C)[C@]5(O)CC[C@@]4(O)C(C)=O)C3)O[C@@H]2C)O[C@@H](C)[C@H]1O[C@H]1C[C@H](OC)[C@H](O[C@H]2C[C@@H](OC)[C@@H](O)[C@H](C)O2)[C@@H](C)O1 [Wilfoside K1N, wilfoside K1N] | 136.4 | 134.4 | 130.4 | 134.2 | 136.8 | 139.2 | 144 | greatly different from those in the blank group | 148.8 | 146.4 | 143.6 | 141.6 | 140 | 137.6 | 134.8 | 2.8 | 6.4 | 2.8 | 8.4 | 9.2 | Average food consumptions [2, 5]: 13.6 g; Average food consumptions [2, 6]: 14.8 g; average food consumptions compared with the blank control group (in words) [2]: greatly different from those in the blank group; Average food consumptions [2, 7]: 13.2 g; Average food consumptions [2, 8]: 13.6 g; Average food consumptions [2, 9]: 13.2 g; Average food consumptions [2, 10]: 14.4 g; Average food consumptions [2, 11]: 14.8 g; Average food consumptions [2, 12]: 10.8 g; Average food consumptions [2, 13]: 7.6 g |
